Key:
Gamma-secretase = assay: Inhibitory concentration against gamma-secretase in whole cell SH-SY5Y assay; format: protein-complex assay
[1] = AUC after administration of 1 (mpk) to rat through oral route; format: ADME, organism-based; conditions: plasma, 1 mg/kg
[2] = (§1) AUC after administration of 30 (mpk) to rat through oral route; format: ADME, organism-based, Plasma; conditions: plasma, 30 mg/kg
Rattus norvegicus = assay: as §1; format: ADME, organism-based, Plasma; conditions: in vivo, 30 mg/kg
[3] = AUC after administration of 4 (mpk) to rat through oral route; format: ADME, organism-based; conditions: plasma, 4 mg/kg

IC50 (Gamma-secretase) [µM]	SMILES	other results
0.019	CCCN1C[C@]2(NS1(=O)=O)[C@@H]1CC[C@H]2Cc2ccc(/C=C/CN3CCOCC3)cc2C1	AUC [1]: 1.19 µM·h
0.002	CCCN1C[C@]2(NS1(=O)=O)[C@@H]1CC[C@H]2Cc2ccc(/C=C/CN3CCC(C(F)(F)F)CC3)cc2C1	
0.0034	O=S1(=O)N[C@@]2(CN1CC(F)(F)F)[C@@H]1CC[C@H]2Cc2ccc(/C=C/CN3CCOCC3)cc2C1	
0.021	CN1CCN(C/C=C/c2ccc3c(c2)C[C@H]2CC[C@@H](C3)[C@]23CN(CC(F)(F)F)S(=O)(=O)N3)CC1=O	
0.004	CC(=O)N1CCN(C/C=C/c2ccc3c(c2)C[C@H]2CC[C@@H](C3)[C@]23CN(CC(F)(F)F)S(=O)(=O)N3)CC1	
0.25	O=S1(=O)N[C@@]2(CN1CC(F)(F)F)[C@@H]1CC[C@H]2Cc2ccc(/C=C/CN3CCCCC3)cc2C1	
0.018	CC1CCN(C/C=C/c2ccc3c(c2)C[C@H]2CC[C@@H](C3)[C@]23CN(CC(F)(F)F)S(=O)(=O)N3)CC1	
0.0005	O=S1(=O)N[C@@]2(CN1CC(F)(F)F)[C@@H]1CC[C@H]2Cc2ccc(/C=C/CN3CCC(C(F)(F)F)CC3)cc2C1	

Second part, the compound before the results:

SMILES	IC50 (Gamma-secretase) [µM]	other results
O=S1(=O)N[C@@]2(CN1C(F)(F)F)[C@@H]1CC[C@H]2Cc2ccccc2C1	0.017	
O=S(=O)(N[C@H]1[C@@H]2CC[C@H]1Cc1ccccc1C2)NC(F)(F)F	0.134	
CCNS(=O)(=O)N[C@H]1[C@@H]2CC[C@H]1Cc1ccccc1C2	0.394	
CCCN1C[C@]2(NS1(=O)=O)[C@@H]1CC[C@H]2Cc2ccccc2C1	0.138	AUC [1]: 0.1 µM·h
CCCCN1C[C@]2(NS1(=O)=O)[C@@H]1CC[C@H]2Cc2ccccc2C1	0.122	
CCN1C[C@]2(NS1(=O)=O)[C@@H]1CC[C@H]2Cc2ccccc2C1	0.429	
CCCNS(=O)(=O)N[C@H]1[C@@H]2CC[C@H]1Cc1ccccc1C2	0.132	AUC [2]: 0.6 µM·h
CCCCNS(=O)(=O)N[C@H]1[C@@H]2CC[C@H]1Cc1ccccc1C2	0.766	
O=S(=O)(N[C@H]1[C@@H]2CC[C@H]1Cc1ccccc1C2)c1ccc(Cl)s1		AUC (Rattus norvegicus): 0.01 uMh
O=S(=O)(NC1[C@@H]2CC[C@H]1Cc1ccc(/C=C/CN3CCOCC3)cc1C2)c1ccc(Cl)s1 (some centres not stated)	0.001	AUC [3]: 0.38 µM·h
